Source: article PMC8244912, “An oxytocin/vasopressin-related neuropeptide modulates social foraging behavior in the clonal raider ant” (PLoS Biology, 2021)
Entries after “also recorded” stand apart in the source; their conditions may differ. Where a SMILES comes first, the peptide text is derived from it. Bridges are numbered along the chain shown (N, C = ends).

How the values were obtained:
[1] = test system: HEK293T cells transfected with an empty vector; assay: Calcium flux, HEK293T cells transfected with empty vector; type: cell-based, human; conditions: inotocin 100 nM
Protocol: (§1) Human embryonic kidney 293T (HEK293T) cells were cultured in DMEM supplemented with 10% FBS at 37°C in a tissue culture incubator with a humidified atmosphere containing 5% CO2. Cells were plated in 10-cm dishes, and, when they reached 60% to 70% confluency, they were transfected with a pcDNA3.3 vector containing approximately 1 ng of inotocin receptor cDNA or an empty vector as a control using Lipofectamine 2000. Cells were transfected directly into poly-D-lysine–coated 384-well plates and incubated for 48 hours at 37°C. Subsequently, cells were incubated with FLIPR Calcium 4 Assay kit dye for 1 hour in the incubator. The fluorescence (excitation, 488 nm; emission, 530 nm) of the wells was recorded using a Flex Station II 384 (Molecular Devices, San Jose, California, USA), and a dose curve of inotocin (0 to 3 μM) was applied to the wells, in sextuplicate (see below for inotocin peptide synthesis). We calculated the EC50 values using Prism (GraphPad Software version 8) nonlinear regression, 4-parameter logistic curve fit. Dose curves were repeated at least 3 times on independently prepared samples and different days. Results were consistent across replicates, and example dose curves are shown in Fig 1C and S4A Fig. Control experiments are shown in S2–S5 Figs.

[2] = test system: O. biroi inotocin receptor (itcR); assay: Calcium flux, inotocin receptor co-transfected with G proteins or empty vector; type: cell-based, Ooceraea biroi
Protocol: as §1
(C and D) Co-transfection with Gq alpha 16. (E and F) Co-transfection with Gq alpha with Gi alpha C term chimera. […]

[3] = test system: O. biroi inotocin receptor splice variant ObiroiItr_H (lacks TM4-7); assay: Calcium imaging (fura-2), truncated receptor isoform H; type: cell-based, Ooceraea biroi
Protocol: The full-length inotocin receptor cDNA sequence that was cloned and used for calcium assays is ObiroiItr_A (GenBank MW660838; for protein sequence, see S1 Fig). We also tested splice variant ObiroiItr_H (GenBank MW660845; for protein sequence, see S1 Fig), which lacks TM4-7, for calcium activity.
Experiments were conducted following Garrison J.L., et al 2012 [8] with modifications. Human embryonic kidney 293T cells (HEK293T) were cultured in DMEM and supplemented with 10% FBS at 37 °C in a cell incubator containing 5% CO^2. Cells were grown in 35 mm MatTek glass bottom dishes to a level of 60 – 70% confluency. Cells were transfected with a 1:1 ratio of PCDNA3.3 containing ~ 1μg of itcR cDNA (full-length isoform A or truncated isoform H) (See S1 Fig for isoforms) and pcDNA3-alpha 16 (encoding promiscuous G protein 16) using Lipofectamine 2000. Cells were incubated for 24 h at 37 °C and then transferred to 28 °C for another 16-24 h. For control experiments, empty vector was also transfected. On the day of the experiment, the cells were loaded with […] fura-2/AM (Invitrogen) for 25 min at 37 °C. Inotocin peptide diluted in Ringer’s solution was applied to the cells for 15 s with a peristaltic pump, and fluorescence at 510 nm was monitored (excitation at 340/380 nm) using a MetaFluor calcium imaging system with a Nikon Eclipse TE2000U microscope.

Ooceraea biroi ants = assay: Pharmacological immersion, mixed-age colonies: ants outside the nest (S9 Fig); type: in vivo; conditions: immersion in 1 mM; mixed-age colonies with larvae; 5 hours; n = 6; p = 0.0002, extra sum-of-squares F-test
Excerpt: Mature O. biroi inotocin peptide (CLITNCPRG) was synthesized and cyclized at The Rockefeller University Proteomics Resource Center, along with a scrambled version of the peptide (NRPCGLTCI) as a negative control with identical amino acid composition.
For the initial experiment (S9 Fig), we set up 6 experimental colonies of line B ants that were color tagged as previously described. Each colony consisted of 16 ants in an airtight Petri dish with a 5-cm diameter; 8 age-matched 4-week-old and 8 age-matched approximately 20-week-old ants. We added ten 3- to 4-day-old larvae to the colonies. We used Logitech (Lausanne, Switzerland) C910 USB cameras to record 5 hours after the treatments, and we used ImageJ to split the videos in batches of 5,000 frames (corresponding to 18.75-minute intervals). We sampled every 10th frame from the 5,000 frames and overlaid the resulting 500 frames into a single image using ImageJ. In each image, we manually counted the number of instances of ants that were outside the nest as a proxy for foraging behavior. Color tagging was used to differentiate inotocin treated from mock treated and untreated ants. The nest was defined as a region of high density of ants in the 500 image projections.
On the day of the experiment, colonies were not fed. To avoid disturbance to the colony as much as possible, half the colony was left untreated, and half was treated. […]

SMILES: CC[C@H](C)[C@@H]1NC(=O)[C@H](CC(C)C)NC(=O)[C@@H](N)CSSC[C@@H](C(=O)N2CCC[C@H]2C(=O)N[C@@H](CCCNC(=N)N)C(=O)NCC(N)=O)NC(=O)[C@H](CC(N)=O)NC(=O)[C@H]([C@@H](C)O)NC1=O [Inotocin] (H-CLITNCPRG-NH2; disulfide 1-6; N-terminus and C-terminus assumed)
- calcium response [1]: No Ca^2+ influx is detected
- calcium response ([2]; co-transfection with Gq alpha 16, Gq alpha with Gi alpha C term chimera, or Gq alpha with Go alpha C term chimera compared with empty vector): does not require co-transfection with a G-protein
- calcium response ([2]; itcR co-transfected with empty vector (no G protein), 28°C or constantly 37°C): response in a dose dependent manner; also recorded: show calcium responses when stimulated with inotocin
- calcium signal [3]: no response to inotocin; also recorded: No calcium signal is detected; also recorded: does not respond to inotocin
- time/instances outside the nest vs scrambled control peptide (Ooceraea biroi ants): spent more time outside the nest than controls; also recorded: foraged more when treated with inotocin than when treated with the control peptide
